# Measured values as given in PubChem BioAssay AID1552 (Sanford-Burnham Center for Chemical Genomics, 2009).
# Activity calls are given as the source filed them. The rule behind the calls is not given here.
# Target: Ubiquitin-conjugating enzyme E2 N (Homo sapiens) (UniProt P61088)
# Experiment: UBE2N binders by NMR, biophysical, purified protein (AID 1552)
# Conditions: NMR binding to purified UBE2N
# Ubiquitin-conjugating enzyme E2 N (Homo sapiens), sequence (P61088 whole entry, looked up): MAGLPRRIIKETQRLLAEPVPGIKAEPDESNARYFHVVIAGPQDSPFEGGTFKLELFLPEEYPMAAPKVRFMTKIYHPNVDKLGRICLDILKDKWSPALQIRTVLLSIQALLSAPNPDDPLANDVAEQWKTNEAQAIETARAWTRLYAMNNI
row,Structure (SMILES),Kd
1,O=C(Nc1ccccc1C(F)(F)F)c1cnccn1,> 4 mM (inactive)
2,O=C(NS(=O)(=O)c1ccccc1)c1ccccc1F,> 4 mM (inactive)
3,CC1=CC2C(C(C)C)CCC(C)(O)C2CC1 (configuration not stated),> 4 mM (inactive)
4,Cc1ccc(SCC(=O)N2CCOCC2)cc1,> 4 mM (inactive)
5,COc1cccc(C(=O)Nc2c(C)n[nH]c2C)c1,> 4 mM (inactive)
6,O=C(Nc1ccccc1Cl)c1cnccn1,> 4 mM (inactive)
7,CC(=O)N1CCN(c2ccc(N)cc2)CC1,> 4 mM (inactive)
8,N#CCN1C(=O)c2ccccc2S1(=O)=O,> 4 mM (inactive)
9,CN(C)C(=O)Oc1ccc(-c2nnco2)cc1,> 4 mM (inactive)
10,Cc1csc2nc(=O)c3ccccc3n12,> 4 mM (inactive)
11,C/C=C(\C)C(=O)OC1[C@@H]2C=C3C(CC[C@]4(C)C3CC(=O)O[C@H]4c3ccoc3)C(C)(C2=O)[C@@H](C(O)C(=O)OC)C1(C)C (some centres not stated),> 4 mM (inactive)
12,NC(=O)CSc1nnc2ccc(-c3ccco3)nn12,> 4 mM (inactive)
13,O=C(O)CS(=O)(=O)c1ccccc1,> 4 mM (inactive)
14,COc1cccc(-c2csc(NC(C)=O)n2)c1,> 4 mM (inactive)
15,CC(C)NC(=O)c1cc(=O)n(C)c(=O)n1C,> 4 mM (inactive)
16,Cc1ccnc(NS(=O)(=O)c2ccccc2)n1,> 4 mM (inactive)
17,NC(=O)CC1NC(=O)c2ccccc21 (configuration not stated),> 4 mM (inactive)
18,Cc1cccc(CSc2nncc(=O)[nH]2)c1,> 4 mM (inactive)
19,CC12CCCC(O)(C1)C1CC(C)(C)C1CC2 (configuration not stated),> 4 mM (inactive)
20,OCC1CCCN2CCCCC12 (configuration not stated),> 4 mM (inactive)
21,O=C(NC(=S)NC1CCS(=O)(=O)C1)c1ccccc1 (configuration not stated),> 4 mM (inactive)
22,Cc1nc(-c2cc(C(=O)O)no2)cs1,> 4 mM (inactive)
23,O=C(O)C1CC(C2CCCCN2)CN2CCCCC12 (configuration not stated),> 4 mM (inactive)
24,COC(=O)C[C@H]1C2(C)CC34OC5(C)O[C@@]6([C@H](OC)C(OC(=O)C(C)C)[C@]7(C)C(/C(=C(/OC)C(C)C)C(=O)O[C@H]7c7ccoc7)[C@@]6(O5)[C@H](OC)[C@@]3(OC)C2OC(C)=O)[C@]14C (some centres not stated),> 4 mM (inactive)

row,Structure (SMILES),Kd
1,CS(C)=C1C(=O)NC(=O)N(Cc2ccc(F)cc2)C1=O,> 4 mM (inactive)
2,Cc1cccc(-n2c(N)cc(=O)[nH]c2=S)c1C,> 4 mM (inactive)
3,CC(C)NC(=O)c1cc(-n2cnnc2)ccc1Cl,> 4 mM (inactive)
4,N/C(=N/O)C1COc2ccccc2O1 (configuration not stated),> 4 mM (inactive)
5,Cc1cc(C(=O)N2CCC3(CC2)OCCO3)cs1,> 4 mM (inactive)
6,O=C1NC(=Nc2ccc(O)cc2)S/C1=C/c1ccco1,> 4 mM (inactive)
7,OC1CCNC2CCCCC12 (configuration not stated),> 4 mM (inactive)
8,O=S(=O)(Cc1ccccc1Cl)Nc1ccccn1,> 4 mM (inactive)
9,O=C1NC(=S)NC(=O)C1=Cc1ccncc1,> 4 mM (inactive)
10,COc1cc(CNC(=O)CCCC/C=C/C(C)C)ccc1O,> 4 mM (inactive)
11,CC(=O)Nc1ccc(C(=O)N2CCOCC2)cc1Cl,> 4 mM (inactive)
12,CC(O)C(=O)N/N=C/c1ccccc1 (configuration not stated),> 4 mM (inactive)
13,CC1(C)CC2C1CCC1(C)OC2(C)CCC1O (configuration not stated),> 4 mM (inactive)
14,Nc1ccc(N2CCCCC2)cc1,> 4 mM (inactive)
15,CC(=O)Nn1c(=O)[nH]c2ccccc2c1=O,> 4 mM (inactive)
16,Oc1cc(O)c2c(c1)O[C@H](c1ccc(O)c(O)c1)[C@H](O)C2,> 4 mM (inactive)
17,Cc1ccc2[nH]cc(CCN)c2c1,> 4 mM (inactive)
18,CC(=O)Nc1ccc(C)cc1NC(C)=O,> 4 mM (inactive)
19,Nc1nnc(COc2cccc(C(F)(F)F)c2)s1,> 4 mM (inactive)
20,O=C(O)CCCCCCCCCCCCC1C=CCC1 (configuration not stated),> 4 mM (inactive)
21,O=C(O)Cn1nnnc1-c1ccc(F)cc1,> 4 mM (inactive)
22,Cc1cc(O)c(NC(=O)c2ccco2)cc1C,> 4 mM (inactive)
23,CC(=O)O[C@H]1CC[C@@]2(C)C(C[C@@H](OC(C)=O)[C@@]3(C)C4=CC(=O)O[C@@H](c5ccoc5)[C@]4(C)CCC23)C1(C)C (some centres not stated),> 4 mM (inactive)
24,NC(=O)C1CCN(Cc2ccccc2)CC1,> 4 mM (inactive)

row,Structure (SMILES),Kd
1,CN1CCn2c1nc(N1CCOCC1)nc2=O,> 4 mM (inactive)
2,Cc1cc(C)n2nc(SCC(=O)c3ccccc3)nc2n1,> 4 mM (inactive)
3,Cc1cc(O)c2c(c1O)C(=O)c1c(O)cc(C)c(O)c1C2=O,> 4 mM (inactive)
4,NN1C(=O)/C(=C/c2ccc(O)c(O)c2)SC1=S,> 4 mM (inactive)
5,O=C(O)C1CC(=O)N(CCc2ccc(Cl)cc2)C1 (configuration not stated),> 4 mM (inactive)
6,O=C1NCCCC1C(=O)N/N=C/c1ccccc1 (configuration not stated),> 4 mM (inactive)
7,OCc1csc(-c2ccccc2)n1,> 4 mM (inactive)
8,CC(=O)Nn1cc2c(=O)n(C)c(=O)n(C)c2c1,> 4 mM (inactive)
9,COc1c2ccccc2nc2occc12,> 4 mM (inactive)
10,CCOC(=O)c1ccc(F)cc1F,> 4 mM (inactive)
11,Cc1cc(=O)[nH]c(NCc2cccnc2)n1,> 4 mM (inactive)
12,Cc1ccc2c(c1)CC[C@H]1CC(=O)CC[C@]21C,> 4 mM (inactive)
13,COc1cc(NC(=O)c2ccccc2)c(C)cc1N,> 4 mM (inactive)
14,CN1CCC(NC(=O)C2CCCO2)CC1 (configuration not stated),> 4 mM (inactive)
15,CCN1CCN(CCCNc2ncnc3nc[nH]c23)CC1,> 4 mM (inactive)
16,O=C1CCC(=O)N1c1nc2ccccc2s1,> 4 mM (inactive)
17,O=C(NC(=S)NCc1cccnc1)c1ccco1,> 4 mM (inactive)
18,Cc1cccc(NC(=O)NC(N)=O)c1,> 4 mM (inactive)
19,COc1ccc(-c2cc(=O)c3c(O)c(OC)c(O[C@H]4O[C@H](CO[C@@H]5O[C@@H](C)[C@H](O)[C@@H](O)[C@H]5O)[C@@H](O)[C@H](O)[C@H]4O)cc3o2)cc1,> 4 mM (inactive)
20,CC(=O)N1C(=S)NC(=O)/C1=C\c1cccnc1,> 4 mM (inactive)
21,O=C(O)CCc1c[nH]c2ccccc12,> 4 mM (inactive)
22,Cn1c(NCc2ccccc2O)nc2ccccc21,> 4 mM (inactive)
23,Cc1ccc(CN2CCN(C(=O)C3CCC3)CC2)cc1,> 4 mM (inactive)
24,NC12CC3CC(C1)CC(O)(C3)C2,> 4 mM (inactive)

row,Structure (SMILES),Kd
1,O=C(O)CCn1c(=O)oc2ccccc21,> 4 mM (inactive)
2,Clc1ncnc2[nH]ncc12,> 4 mM (inactive)
3,CC1(O)CC2C=CC1C2 (configuration not stated),> 4 mM (inactive)
4,Clc1ccccc1OCc1nc(-c2ccncc2)no1,> 4 mM (inactive)
5,O=C(O)c1cncc(-c2ccccc2)c1,> 4 mM (inactive)
6,CC1(C)C(=O)[C@@H]2O[C@@H]2[C@@]2(C)C1C[C@@H](O)[C@]1(C)C2CC[C@@]2(C)[C@H](c3ccoc3)OC(=O)C3OC321 (some centres not stated),> 4 mM (inactive)
7,CC(=O)CC1(O)C(=O)Nc2ccccc21 (configuration not stated),> 4 mM (inactive)
8,C=C1C(=O)O[C@@H]2C3OC3(C)CC/C=C(\C)CC[C@@H]12 (some centres not stated),> 4 mM (inactive)
9,CC(C)Oc1ccc(C2CC(=O)NNC2=O)cc1 (configuration not stated),> 4 mM (inactive)
10,CC(=O)NC(=S)Nc1nc2ccccc2n1C(C)=O,> 4 mM (inactive)
11,Cc1cc(NC(=O)c2ocnc2C)no1,> 4 mM (inactive)
12,CC1=C(/C=C/C(C)=C/C=C/C(C)=C/C=C/C=C(C)/C=C/C=C(C)/C=C/C(=O)[C@]2(C)C[C@@H](O)CC2(C)C)C(C)(C)C[C@H](O)C1,> 4 mM (inactive)
13,O=C(O)CNc1ncnc2nc[nH]c12,> 4 mM (inactive)
14,COc1c(O)cc2c(-c3ccccc3)cc(=O)oc2c1OC,> 4 mM (inactive)
15,Clc1ccc(-n2ccnc2)nn1,> 4 mM (inactive)
16,O=C(Nc1cccnc1)c1c(F)c(F)c(F)c(F)c1F,> 4 mM (inactive)
17,c1cc(C(N2CCOCC2)N2CCOCC2)ccn1,> 4 mM (inactive)
18,O=C(O)c1c[nH]c2ccccc12,> 4 mM (inactive)
19,O=C1NC(=S)NC(=O)C1=Cc1cccs1,> 4 mM (inactive)
20,COc1ccc([C@H]2COc3c(ccc(O)c3OC)C2)c(OC)c1O,> 4 mM (inactive)
21,CC(=O)c1ccc(-n2ccnc2)cc1,> 4 mM (inactive)
22,O=C(NCc1ccccn1)c1ccccc1Cl,> 4 mM (inactive)
23,O=C(O)CCC(=O)Nc1ccccc1F,> 4 mM (inactive)
24,O=C(Oc1ccc2c(c1)OCC2=O)c1ccccc1,> 4 mM (inactive)

row,Structure (SMILES),Kd
1,O=C(O)c1scc2c1CCCC2,> 4 mM (inactive)
2,O=C(NCc1ccccc1Br)c1ccco1,> 4 mM (inactive)
3,O=C1CNC(=O)/C1=C/c1ccc(O)cc1,> 4 mM (inactive)
4,Cc1nc(SCC(=O)c2c[nH]c3ccccc23)n[nH]1,> 4 mM (inactive)
5,NC(=O)c1ccccc1NC(=O)C1CCCO1 (configuration not stated),> 4 mM (inactive)
6,Cc1ccccc1N1C(=O)CC(=O)NC1=O,> 4 mM (inactive)
7,O=C(CC1SC(=O)NC1=O)Nc1nccs1 (configuration not stated),> 4 mM (inactive)
8,NNC(=O)c1ccccc1-n1cccc1,> 4 mM (inactive)
9,OCc1ccccc1N1CCOCC1,> 4 mM (inactive)
10,O=C1NC(=O)C2C3C=CC(O3)C12 (configuration not stated),> 4 mM (inactive)
11,c1ccc(Cc2nnc3sc(-c4cccnc4)nn23)cc1,> 4 mM (inactive)
12,O=[n+]1cc(-c2ccccc2)n([O-])c2c1CCC2,> 4 mM (inactive)
13,NC(=O)C1CCCN1S(=O)(=O)c1ccc(F)cc1 (configuration not stated),> 4 mM (inactive)
14,CCN1C[C@@]2(COC)C3[C@@H](OC)[C@H]4[C@@H]1[C@]3(C(OC)C[C@H]2O)C1C[C@@]2(O)[C@H](OC(=O)c3ccccc3)C1[C@]4(OC(C)=O)[C@@H](O)[C@@H]2OC (some centres not stated),> 4 mM (inactive)
15,CCC(=O)Nc1cc(C(C)C)c(O)cc1C,> 4 mM (inactive)
16,Cc1nnsc1C(=O)Nc1ccc(C(N)=O)cc1,> 4 mM (inactive)
17,O=P(O)(Cc1ccccc1)c1ccccc1,> 4 mM (inactive)
18,Cc1ccc(F)cc1NC(=O)c1ccc2c(c1)OCO2,> 4 mM (inactive)
19,O=C(O)C1CCN(c2ccc(C(F)(F)F)cn2)CC1,> 4 mM (inactive)
20,OC(CCl)c1ccc(-n2cncn2)cc1 (configuration not stated),> 4 mM (inactive)
21,O=C(O)c1cn(-c2ccccc2)nc1-c1ccncc1,> 4 mM (inactive)
